# Read-outs that look alike come from different tables or passages of the source.
# Assays:
# Type in all cases: cell-based
# [1] = molecular target: T1, human GPR120 (hGPR120) (Homo sapiens, UniProt Q5NUL3); assay: ERK assay, screening for GPR120 ligands in cell line TXGPR120;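 for ERK/GPR120 10 μM: signals normalized between DMSO and PMA controls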; details: for ERK activation for GPR120 (in words) / ERK/GPR120 10 μM / ERK/GPR120 100 μM: TXGPR120 cells; for ERK activation for GPR120 (in words): FIGS. 5-8; for ERK/GPR120 10 μM: ligand 10 μM; for ERK/GPR120 10 μM / ERK/GPR120 100 μM: class relative to LA; for ERK/GPR120 100 μM: ligand 100 μM
# T1 construct: expressed in transfected cells; doxycycline-inducible expression vector
# T1 sequence (Q5NUL3 1-361): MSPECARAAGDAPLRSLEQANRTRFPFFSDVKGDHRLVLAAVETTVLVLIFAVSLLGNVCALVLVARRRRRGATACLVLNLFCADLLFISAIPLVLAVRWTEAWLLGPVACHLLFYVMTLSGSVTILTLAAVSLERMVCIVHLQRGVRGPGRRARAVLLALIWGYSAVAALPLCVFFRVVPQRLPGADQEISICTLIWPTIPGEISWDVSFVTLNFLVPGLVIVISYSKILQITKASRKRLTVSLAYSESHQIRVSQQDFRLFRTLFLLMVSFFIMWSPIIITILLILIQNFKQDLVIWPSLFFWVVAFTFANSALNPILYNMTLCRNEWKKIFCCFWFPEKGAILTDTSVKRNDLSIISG
# Procedure: (§1) This Test 1 was carried out by using the following materials and methods.
# (§2) (1) In this test, the cell lines TXGPR40 and TXGPR120 were plated in 35-mm dishes in 5×10^5 cells/per dish.
# (§3) Each ligand was dissolved in DMSO, diluted tenfold with the medium to make the total amount of 100 μl. DMSO was used as the negative control, and PMA (phorbol-12-myristate-13-acetate) was used as the positive control.
# (§4) (3) The medium was removed from the dish of the cell to reduce the total amount of liquid to 0.9 ml.
# (§5) (4) The ligand solution was added dropwise to the cell solution, and dispersed by gently shaking the dish, and allowed to react at room temperature.
# (§6) (5) After 5 minutes of reaction, the medium was discarded, and the remaining medium on the dish was removed on ice using an aspirator.
# (§7) (6) 150 μl of Lysis buffer (50 mM HEPES (pH 7.0), 150 mM NaCl, 10% glycerol, 1% NonidetP-40, 2 mM MgCl2, 1 mM EDTA, 100 mM NaF, 10 mM sodium phosphate, 1 mM Na3VO4, 20 mM β-glycerophosphate, and Proteinase inhibitor) were added, then the cells were collected using a cell scraper.
# (§8) (1) The crude enzyme solution mixed with SDS Sample Buffer was subjected to ultrasonication with a sonifier, then incubated at 90° C. for five minutes.
# (§9) (2) The mixture was vortexed and centrifuged at 15,000 rpm for five minutes at 4° C.
# (§10) (3) The supernatant of the centrifuged sample was applied to two 7.5% acrylamide gel slabs placed in an electrophoresis tank filled with 1×SDS-PAGE Running Buffer (25 mM Tris, 0.2 M Glycin, and 1% SDS). Electrophoresis was carried out under a constant current of 40 mA for about 80 to 90 minutes.
# (§11) (1) A PVDF membrane cut in the same size as the gel slab was immersed in methanol for about 15 seconds and then shaken in Transfer Buffer C solution (25 mM Tris, 0.02% SDS, 2% methanol and 40 mM 6-aminohexanoic acid) at room temperature to swell for 15 minutes. Filter paper for blotting was cut into a 10-cm square.
# (§12) (2) On the blotting apparatus were placed sequentially two pieces of filter paper immersed in A solution (0.3 M Tris, 0.02% SDS and 2% methanol), two pieces of filter paper immersed in B solution (25 mM Tris, 0.02% SDS and 2% methanol), and the membrane thereon. The gel slab after electrophoresis, and finally two pieces of filter paper immersed in C solution was placed thereon, and the apparatus was closed.
# (§13) (3) The protein was transferred to the membrane at 15 V for 30 minutes.
# (§14) (1) The following procedure was all carried out at room temperature. After the protein transfer, the membrane was placed into a vial containing 1×TTBS (0.2 M Tris, 1.5 M NaCl, 0.2% Tween 20) and washed for 15 minutes.
# (§15) (2) TTBS was discarded, and about 10 ml of Block Ace was added and blocked on a shaker for one hour.
# (§16) (1) The primary antibodies (p44/42 MAP Kinase Antibody and Phospho-p44/42 MAP Kinase Antibody) were each diluted 1000-fold with TTBS.
# (§17) (2) After blocking, the Block Ace solution was removed, the solution of the primary antibody was added and allowed to react on the shaker for two hours.
# (§18) (1) The secondary antibody (Anti-rabbit Ig, Horseradish Peroxidase linked F(ab′)2 fragments) was diluted 5000-fold with TTBS.
# (§19) (2) The primary antibody solution was removed and the membrane was washed three times on the shaker in TTBS for five to ten minutes each.
# (§20) (3) TTBS was removed and the solution of secondary antibody was added and left for 1 hour on the shaker.
# (§21) (1) 2 ml each of Detection Reagent 1 and Detection Reagent 2 from ECL kit were mixed together on ice.
# (§22) (2) The solution of secondary antibody was removed from the membrane reacted with the secondary antibody and then washed three times on the shaker in TTBS for five minutes each.
# (§23) (3) The liquid was thoroughly removed from the membrane, which was then placed in a plastic bag, and 2 ml of the Detection Reagent mixture was added per each membrane.
# (§24) (4) The membrane was kept in contact with a film in the cassette for one to five minutes, and the film was developed using an automatic developing machine.
# [2] = molecular target: T1, human GPR120 (hGPR120); assay: Determination of intracellular Ca2+ concentration (FLIPR), cell line TXGPR120; details: for agonistic activity for hGPR120 (in words): cells in which GPR120 has been transgenically expressed; for [Ca^2+]/GPR120 10 μM (ratio vs. LA): relative fluorescence intensity vs LA at 10 μM
# Procedure: (§25) (1) In this test, The cell lines TXGPR40, TXGPR120 and GPR120/Flp-in were plated onto a collagen-coated black 96-well plate in 2×10^5 cells/well. The 96-well plates containing the cells were centrifuged and treated with Doxycycline (final concentration 10 μg/mL), incubated in a CO2 incubator for 21 hours, then used for assay.
# (§26) (2) The ligand used in this test includes NCP04, NCP14, NCG20, NCG21, NCG22, NCG23, NCP02, NCP03, NCP05, NCP06, NCG14, NCG17, NCG19, NCG28, NCG29, NCG30, NCG31, NCG34, NCG35, NCG37, NCG38, NCG44, NCG45, NCG46, and NCG54. Each ligand was dissolved in DMSO and adjusted to the concentration of 10 mM, then diluted with Hanks' Balanced Salt Solution (pH 7.4) containing 20 mM HEPES (referred to as FLIPR buffer hereinafter) to the final concentration of 1 to 100 μM. 1% DMSO was used as the negative control, and LA was used as the positive control.
# (§27) The ligands and controls were placed in different 96-well plates from the plates for the cells.
# (§28) (3) The 96-well plate containing the cells was removed from the CO2 incubator. A fluorescent dye prepared in a twofold higher concentration (Ca Assay Kit Component A diluted with FLIPR Buffer) was added in 50 μL/well, then allowed to stand in the dark at room temperature for one hour.
# (§29) (4) After one hour, the 96-well plate containing the cells and the 96-well plate in which ligands and controls were prepared were set on FLIPR (Fluorometric Imaging Plate Reader) for determination.
# (§30) (5) Fluorometry using FLIPR was carried out at a laser output of 1.0 W for five minutes. […] after the start of the determination, the ligand (25 μL) was added dropwise to the cell plate at a rate of 50 μL/sec. The intensity of fluorescence was automatically digitized by the application program installed in the FLIPR from the image taken by the CCD camera (with exposure time of 0.40 sec). The interval of data sampling was one second for the initial one minute after the start of operation, and six seconds for the subsequent four minutes.
# (§31) (6) The maximum fluorescence intensity was obtained from the data showing the change in the fluorescence intensity over time observed in each well. The maximum fluorescence intensity was plotted against ligand concentration, and pEC50 was calculated. The ratio of the fluorescence intensity for each ligand to LA at 10 μM was calculated as the relative intensity of each ligand.
# [3] = molecular target: T2, human GPR40 (hGPR40) (Homo sapiens, UniProt O14842); assay: Determination of intracellular Ca2+ concentration (FLIPR), cell line TXGPR40; details: for agonistic activity for GPR40 (in words): cells in which GPR40 has been transgenically expressed; for [Ca^2+]/GPR40 10 μM (ratio vs. LA): relative fluorescence intensity vs LA at 10 μM
# T2 construct: expressed in transfected cells; doxycycline-inducible expression vector
# T2 sequence (O14842 whole entry): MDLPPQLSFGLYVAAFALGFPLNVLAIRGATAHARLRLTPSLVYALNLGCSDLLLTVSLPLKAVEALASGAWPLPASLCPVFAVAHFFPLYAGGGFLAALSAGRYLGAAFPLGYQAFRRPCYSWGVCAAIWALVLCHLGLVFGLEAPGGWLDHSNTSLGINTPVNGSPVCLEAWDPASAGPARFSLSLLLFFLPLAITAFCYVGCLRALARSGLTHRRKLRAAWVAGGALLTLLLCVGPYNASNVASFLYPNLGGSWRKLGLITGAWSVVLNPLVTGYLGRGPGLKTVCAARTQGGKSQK
# Procedure: as §25, §26, §27, §28, §29, §30, §31
# [4] = molecular target: T1, human GPR120 (hGPR120); assay: Determination of intracellular Ca2+ concentration (FLIPR), cell line GPR120/Flp-in; details: for [Ca^2+]/GPR120/Flp-In 10 μM (ratio vs. LA): relative fluorescence intensity vs LA at 10 μM
# Procedure: as §25, §26, §27, §28, §29, §30, §31
# [5] = molecular target: T2, human GPR40 (hGPR40); assay: ERK assay, screening for GPR40 ligands in cell line TXGPR40; details: TXGPR40 cells; for ERK activation for GPR40 (in words): FIGS. 1-4; for ERK/GPR40 10 μM: ligand 10 μM; for ERK/GPR40 10 μM / ERK/GPR40 100 μM: class relative to LA; for ERK/GPR40 100 μM: ligand 100 μM
# Procedure: as §1, §2, §3, §4, §5, §6, §7, §8, §9, §10, §11, §12, §13, §14, §15, §16, §17, §18, §19, §20, §21, §22, §23, §24
# [6] = GPR120/Flp-in cells, maximum fluorescence intensity vs ligand concentration, read-out: [Ca^2+]/GPR120/Flp-In pEC50 (converted)
Structure (SMILES),ERK activation for GPR120 (in words) [1],ERK/GPR120 10 μM [1],ERK/GPR120 100 μM [1],EC50 [2],agonistic activity for hGPR120 (in words) [2],[Ca^2+]/GPR120 10 μM (ratio vs. LA) ([2]; TXGPR120 cells),EC50 [3],agonistic activity for GPR40 (in words) [3],[Ca^2+]/GPR40 10 μM (ratio vs. LA) ([3]; TXGPR40 cells),EC50 [4],[Ca^2+]/GPR120/Flp-In 10 μM (ratio vs. LA) ([4]; GPR120/Flp-in cells),ERK activation for GPR40 (in words) [5],ERK/GPR40 10 μM [5],ERK/GPR40 100 μM [5],"EC50 ([3]; TXGPR40 cells, maximum fluorescence intensity vs ligand concentration, read-out: [Ca^2+]/GPR40 pEC50 (converted))","EC50 [4, 6]",selectivity for GPR120 in ERK assay (in words) ([1]; GPR120 versus GPR40),"selectivity between GPR40 and GPR120 (in words), from Tables 3 and 4 ([2]; GPR40 versus GPR120, Ca2+ and ERK results)","EC50 ([2]; TXGPR120 cells, maximum fluorescence intensity vs ligand concentration, read-out: [Ca^2+]/GPR120 pEC50 (converted))"
O=C(O)CCCc1ccc(OCCN(c2ccccc2)c2nc3ccccc3s2)cc1 [NCG31],strongly activate ERK,+++ (+++ denotes a higher value than LA),+++ (+++ denotes a higher value than LA),17 µM,exhibit a similar effect,0.61,19.1 µM,showed a specific reactivity,0.32,6.92 µM,0.73,strongly activated ERK,+++ (+++ denotes a higher value than LA),+++ (+++ denotes a higher value than LA),,,,,
CCN(CCOc1ccc(CCC(=O)O)cc1)c1ccccn1 [NCP02],,+ (+ denotes 0 to 100% of LA),+ (+ denotes 0 to 100% of LA),,exhibit a similar effect,0.00,,showed a specific reactivity,1.47,,0.45,,+ (+ denotes 0 to 100% of LA),+++ (+++ denotes a higher value than LA),3.39 µM,15.5 µM,,,
O=C(O)CCCc1ccc(OCCN(c2ccccc2)c2cccnc2)cc1 [NCG30],strongly activate ERK,++ (++ denotes 50 to 100% of LA),+++ (+++ denotes a higher value than LA),,exhibit a similar effect,0.71,,,0.01,,0.88,strongly activated ERK,,+ (+ denotes 0 to 100% of LA),,3.72 µM,selective for GRP120,acting relatively mildly for GPR40 but acting strongly for GPR120,15.5 µM

# Source: patent publication US8318781B2, “G-protein-conjugated receptor agonist” (Japan Science and Technology Agency, priority 2007, dated 2012)
